In ChEMBL document CHEMBL1130891, “Solid-phase synthesis of N-substituted amidinophenoxy pyridines as factor XA inhibitors” (Bioorg Med Chem Lett, 1998):

biological target: Coagulation factor X (Homo sapiens, UniProt P00742); experiment: Binding affinity was evaluated against Coagulation factor X
Sequence (P00742 41-179 limits assumed): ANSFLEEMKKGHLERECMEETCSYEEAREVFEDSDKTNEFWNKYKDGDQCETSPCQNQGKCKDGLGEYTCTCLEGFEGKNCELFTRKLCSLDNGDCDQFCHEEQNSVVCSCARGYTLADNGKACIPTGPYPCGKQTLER
Sequence (P00742 235-488 limits assumed): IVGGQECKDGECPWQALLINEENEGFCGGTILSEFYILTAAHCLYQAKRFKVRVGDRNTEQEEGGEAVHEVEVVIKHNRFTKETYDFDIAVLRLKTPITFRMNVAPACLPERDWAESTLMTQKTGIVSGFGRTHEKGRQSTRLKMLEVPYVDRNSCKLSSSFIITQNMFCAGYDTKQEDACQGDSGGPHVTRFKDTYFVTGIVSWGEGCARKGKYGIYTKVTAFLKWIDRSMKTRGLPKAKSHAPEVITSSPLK

`Cc1c(F)c(Oc2cccc(C(=N)N)c2)nc(N2CCN(c3ccco3)CC2)c1F` and `Cc1cccc(C)c1N1CCN(c2nc(Oc3cccc(C(=N)N)c3)c(F)c(C)c2F)CC1` cannot be ordered by Ki: > 5 µM for the first, > 5 µM for the second.

`CCOC(=O)C1CCCN(c2nc(Oc3cccc(C(=N)N)c3)c(F)c(C)c2F)C1` (stereo not drawn) and `Cc1c(F)c(Oc2cccc(C(=N)N)c2)nc(N2CCC[C@H]2CO)c1F` cannot be ordered by Ki: > 5 µM for the first, > 5 µM for the second.

Compared with `N=C(N)c1cccc(COc2ccccc2)c1`, `N=C(N)c1ccccc1` [BENZAMIDINE] is 60-fold higher in Ki: 0.0068 µM for the first, 0.41 µM for the second.

`Cc1c(F)c(NCCCN2CCCC2=O)nc(Oc2cccc(C(=N)N)c2)c1F` and `Cc1c(F)c(NCCN(C)C)nc(Oc2cccc(C(=N)N)c2)c1F` cannot be ordered by Ki: > 5 µM for the first, > 5 µM for the second.

Compared with `Cc1c(F)c(Oc2cccc(C(=N)N)c2)nc(N2CCC(C)(c3ccccc3)CC2)c1F`, `Cc1c(F)c(Oc2cccc(C(=N)N)c2)nc(N2CCN(C)CC2)c1F` is higher in Ki: 0.56 µM for the first, > 5 µM for the second.

`CC(=N)N1CCC(Oc2nc(Oc3cccc(C(=N)N)c3)c(F)c(C)c2F)C1` (stereo not drawn) and `Cc1c(F)c(Oc2cccc(C(=N)N)c2)nc(OC2CCNC2)c1F` (stereo not drawn) cannot be ordered by Ki: > 5 µM for the first, > 5 µM for the second.

Compared with `Cc1c(F)c(Oc2cccc(C(=N)N)c2)nc(N2CCN(CC(=O)N3CCOCC3)CC2)c1F`, `Cc1c(F)c(Oc2cccc(C(=N)N)c2)nc(N2CCN(C3CCCCC3)CC2)c1F` is lower in Ki: > 5 µM for the first, 0.495 µM for the second. The second binds more tightly here.

`Cc1c(F)c(NC2CCCCC2)nc(Oc2cccc(C(=N)N)c2)c1F` and `CCCOCCNc1nc(Oc2cccc(C(=N)N)c2)c(F)c(C)c1F` cannot be ordered by Ki: > 5 µM for the first, > 5 µM for the second.

First: N=C(N)c1ccc(/C=C2/CCCC/C(=C/c3ccc(C(=N)N)cc3)C2=O)cc1
Second: Cc1c(F)c(Oc2cccc(C(=N)N)c2)nc(N2CCN(c3ccc4c(c3)OCO4)CC2)c1F
The Ki of the first is lower: 0.013 µM for the first, > 5 µM for the second. The first binds more tightly here.
